In ChEMBL document CHEMBL1124887, “Antiinflammatory agents. 4. Syntheses and biological evaluation of potential prodrugs of 2-amino-3-benzoylbenzeneacetic acid and 2-amino-3-(4-chlorobenzoyl)benzeneacetic acid” (J Med Chem, 1990):
The source made the active and inactive calls. The calls are words filed in the database; no cut-off is given here.

How the values were obtained:
[1] = Antiinflammatory activity was tested in Pleural effusion rate assay and the percent change in average volume of pleural fluid at the dose of 316 mg/kg; Inactive
Rattus norvegicus [2] = species: Rattus norvegicus; assay: Pharmacological potency relative to indomethacin for prodrug candidate by adjuvant-induced arthritis assay; format: functional
Rattus norvegicus [3] = species: Rattus norvegicus; assay: (§1) Potency in adjuvant-induced arthritis assay/ potency in intestinal toxicity assay.; format: functional
Cyclooxygenase = molecular target: T1, Cyclooxygenase (Rattus norvegicus, UniProt P35355+Q63921)
T1 sequence (P35355 whole entry): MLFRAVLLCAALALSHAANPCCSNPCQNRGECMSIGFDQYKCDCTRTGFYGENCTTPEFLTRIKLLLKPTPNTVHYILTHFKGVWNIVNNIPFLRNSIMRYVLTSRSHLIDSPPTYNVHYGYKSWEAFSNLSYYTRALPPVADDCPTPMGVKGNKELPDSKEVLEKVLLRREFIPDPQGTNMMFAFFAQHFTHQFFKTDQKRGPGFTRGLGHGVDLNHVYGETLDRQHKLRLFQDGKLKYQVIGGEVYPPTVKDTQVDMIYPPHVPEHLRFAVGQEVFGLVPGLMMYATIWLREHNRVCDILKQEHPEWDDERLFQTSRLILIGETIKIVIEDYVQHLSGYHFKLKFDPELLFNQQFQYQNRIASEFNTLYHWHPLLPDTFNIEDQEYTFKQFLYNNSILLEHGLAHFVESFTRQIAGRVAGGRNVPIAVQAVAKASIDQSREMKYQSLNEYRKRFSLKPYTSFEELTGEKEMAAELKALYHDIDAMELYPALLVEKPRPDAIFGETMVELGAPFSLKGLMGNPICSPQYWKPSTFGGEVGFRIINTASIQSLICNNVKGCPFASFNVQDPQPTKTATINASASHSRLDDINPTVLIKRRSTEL
T1 sequence (Q63921 whole entry): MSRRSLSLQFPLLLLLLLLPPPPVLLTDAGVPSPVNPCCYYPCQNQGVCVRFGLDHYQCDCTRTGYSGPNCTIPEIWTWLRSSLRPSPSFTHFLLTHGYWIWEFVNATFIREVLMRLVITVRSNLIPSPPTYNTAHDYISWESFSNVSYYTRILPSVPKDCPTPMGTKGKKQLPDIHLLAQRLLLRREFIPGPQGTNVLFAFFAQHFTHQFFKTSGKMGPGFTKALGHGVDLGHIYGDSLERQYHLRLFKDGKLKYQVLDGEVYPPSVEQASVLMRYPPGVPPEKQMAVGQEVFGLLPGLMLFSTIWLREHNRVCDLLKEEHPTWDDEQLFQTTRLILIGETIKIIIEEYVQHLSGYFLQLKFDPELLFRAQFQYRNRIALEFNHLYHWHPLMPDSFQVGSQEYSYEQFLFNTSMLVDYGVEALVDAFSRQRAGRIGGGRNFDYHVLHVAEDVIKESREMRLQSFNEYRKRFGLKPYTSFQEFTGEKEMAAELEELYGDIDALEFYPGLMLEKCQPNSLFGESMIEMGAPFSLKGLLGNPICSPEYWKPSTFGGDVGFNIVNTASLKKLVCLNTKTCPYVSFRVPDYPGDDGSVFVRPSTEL

Rattus norvegicus [4] = species: Rattus norvegicus; assay: potency in adjuvant-induced arthritis assay/ potency in intestinal toxicity assay.; format: functional
[5] = as §1; conditions: read-out: Therapeutic index
Rattus norvegicus [6] = assay: Antiinflammatory activity was tested in Pleural effusion rate assay for and the percent change in average volume of pleural fluid at the dose of 4.0 mg/kg; format: functional
[7] = molecular target: Prostaglandin G/H synthase 1 (Ovis aries) (UniProt P05979); assay: Inhibitory activity against Prostaglandin G/H synthase

IC50 (Cyclooxygenase) [µM] | SMILES | Potency (Rattus norvegicus [2]) | Therapeutic index (Rattus norvegicus [3]) | further results
0.1 | Nc1c(CC(=O)[O-])cccc1C(=O)c1ccc(Cl)cc1.[Na+] | 2.2 | 1.6 | 
> 1000 | CCOC(=O)Cc1cccc(C(=O)c2ccc(Cl)cc2)c1NC(=O)C(F)(F)F | 1 | 3.3 | 
> 1000 | Nc1c(CC(=O)[O-])cccc1C(O)c1ccccc1.[Na+] (stereo unspecified) | 0.001 |  | 
> 1000 | Nc1c(CCO)cccc1C(=O)c1ccc(Cl)cc1 | 0.8 | 3.3 | 
> 1000 | Nc1c(CCO)cccc1C(O)c1ccc(Cl)cc1 (stereo unspecified) | 0.05 |  | 
> 100 | NC(=O)Cc1cccc(C(=O)c2ccccc2)c1N | 0.09 |  | 
> 1000 | O=C(O)Cc1cccc2c(-c3ccccc3)onc12 | 0.6 | 2.5 | 
73 | CCOC(=O)Cc1cccc(C(=O)c2ccc(Cl)cc2)c1N | 1 | 1.7 | 
> 1000 | Nc1c(C(=O)CCC(=O)O)cccc1C(=O)c1ccc(Cl)cc1 | 0.9 | 3 | 
> 100 | Nc1c(CCO)cccc1C(=O)c1ccccc1 | 0.05 |  | 
> 1000 | NC(=O)Cc1cccc(C(=O)c2ccc(Cl)cc2)c1N | 0.8 | 10 | 
50 | CCOC(=O)Cc1cccc(C(=O)c2ccccc2)c1N | 0.3 | 0.4 | 
0.1 | Nc1c(CC(=O)[O-])cccc1C(=O)c1ccccc1.[Na+] [AMFENAC SODIUM] | 1.1 | 2.8 | 

The remaining lines, values behind:

SMILES | IC50 (Cyclooxygenase) [µM] | Potency (Rattus norvegicus [2]) | Therapeutic index (Rattus norvegicus [3]) | further results
CC(=O)c1cccc(C(=O)c2ccccc2)c1N |  |  |  | Change [1]: inactive
N#CCc1cccc(C(=O)c2ccc(Cl)cc2)c1N |  |  |  | Change [1]: inactive
O=C(O)Cc1cccc2c(-c3ccc(Cl)cc3)onc12 | > 500 | 1 |  | Therapeutic index (Rattus norvegicus [4]): 1
O=C(O)Cc1cccc(C(=O)c2ccccc2)c1[N+](=O)[O-] | > 1000 | 0.5 | 5 | 
O=C1Cc2cccc(C(=O)c3ccc(Cl)cc3)c2N1 |  |  |  | Change [1]: inactive
COc1ccc2c(c1)c(CC(=O)O)c(C)n2C(=O)c1ccc(Cl)cc1 [INDOMETHACIN] |  | 1 |  | 
O=C(O)Cc1cccc(C(=O)c2ccc(Cl)cc2)c1[N+](=O)[O-] |  | 1.7 |  | selectivity ratio [5]: 3.4; Change (Rattus norvegicus [6]): -21%; IC50 [7]: > 1000 µM
Nc1c(CCO)cccc1C(O)c1ccccc1 (stereo unspecified) | > 500 | 0.005 |  | 
O=C1Cc2cccc(C(=O)c3ccccc3)c2N1 |  |  |  | Change [1]: inactive
Nc1c(CC(=O)[O-])cccc1C(O)c1ccc(Cl)cc1.[Na+] (stereo unspecified) | > 1000 | 0.002 |  | 
Nc1c(C(=O)CCC(=O)O)cccc1C(=O)c1ccccc1 | > 1000 | 0.4 | 2.5 | 
CN(C)c1c(CC(=O)O)cccc1C(=O)c1ccccc1 | > 1000 | 0.009 |  | 
CC(=O)Nc1c(CC(=O)O)cccc1C(=O)c1ccccc1 |  |  |  | Change [1]: inactive
Nc1c(CC(=O)[O-])cccc1C(=O)C1CCCCC1.[Na+] |  | 0.004 |  | 
